Test results: patent US5153203A, “Quinolone derivatives and salts thereof, preparation processes thereof, and antibacterial agents containing the same” (Wakunaga Seiyaku Kabushiki Kaisha, priority 1989, dated 1992)
Values after ≈ are worked out from the molar mass of the structure shown.

Tests used:
[1] = tested on: E. coli NIH JC-2 (IFO 12734); test: Minimum inhibitory concentration (MIC), standard method of the Japan Society of Chemotherapy; type: cell-based; details: Escherichia coli, IFO12734
Experimental: (§1) With respect to certain representative compounds among the compounds [I] of the present invention, their minimum inhibitory concentrations (MIC; μg/ml) were measured in accordance with the standard method established by the Japan Society of Chemotherapy [CHEMOTHERAPY, 29(1), 76-79 (1981]. The results are summarized in Table 1, in which the compound numbers are as shown in examples.

P. aeruginosa (IFO 3445) = test: as above; type: cell-based; details: Pseudomonas aeruginosa, IFO3445
Experimental: as §1

[2] = tested on: S. aureus 209 P (IFO 12732); test: as above; type: cell-based; details: Staphylococcus aureus, IFO12732
Experimental: as §1

[3] = Partition coefficient, phosphate buffer/n-octanol; type: physicochemical; details: 50 mM phosphate buffer (pH 7.4, μ=0.15)/n-octanol
Experimental: Following the method proposed by Akira Tsuji et al. in Antimicrob. Agents Chemother., 32. 190-194 (1988), 50 mM phosphate buffer (pH 7.4, μ=0.15)/n-octanol partition coefficients were measured.

MIC [1] [µg/mL]	MIC (P. aeruginosa (IFO 3445)) [µg/mL]	MIC [2] [µg/mL]	logD [3]	SMILES
0.39	3.13	3.13	–	Cl.O=C(O)c1cn(C2CC2)c2cc(OC3CCNC3)c(F)cc2c1=O (centres unmarked) [Compound 1, 7-(3-Pyrrolidinyloxy)-1-cyclopropyl-6-fluoro-1,4-dihydro-4-oxoquinoline-3-carboxylic acid hydrochloride]
0.2	0.78	0.78	–	Cl.O=C(O)c1cn(C2CC2)c2c(F)c(OC3CCNC3)c(F)cc2c1=O (centres unmarked) [Compound 2, 7-(3-Pyrrolidinyloxy)-1-cyclopropyl-6,8-difluoro-1,4-dihydro-4-oxoquinoline-3-carboxylic acid hydrochloride]
0.1	0.78	0.39	–	Cl.Nc1c(F)c(OC2CCNC2)c(F)c2c1c(=O)c(C(=O)O)cn2C1CC1 (centres unmarked) [Compound 8, 7-(3-Pyrrolidinyloxy)-1-cyclopropyl-5-amino-6,8-difluoro-1,4-dihydro-4-oxoquinoline-3-carboxylic acid hydrochloride]
1.25	25	1.56	–	CC1COc2c(OC3CCNC3)c(F)cc3c(=O)c(C(=O)O)cn1c23.Cl (centres unmarked) [Compound 9, 10-(3-Pyrrolidinyloxy)-9-fluoro-2,3-dihydro-3-methyl-7-oxo-7H-pyrido[1,2,3-de][1,4]-benzoxazine-6-carboxylic acid hydrochloride]
0.78	3.13	1.56	–	Cl.O=C(O)c1cn(-c2ccc(F)cc2F)c2nc(OC3CCNC3)c(F)cc2c1=O (centres unmarked) [Compound 10, 7-(3-Pyrrolidinyloxy)-1-(2,4-difluorophenyl)-6-fluoro-1,4-dihydro-4-oxo-1,8-naphthyridine-3-carboxylic acid hydrochloride]
0.78 (≈ 2.24 µM)	12.5 (≈ 35.9 µM)	1.56 (≈ 4.48 µM)	–	CCn1cc(C(=O)O)c(=O)c2cc(F)c(OC3CCN(C)CC3)cc21 [Compound 11, 7-(1-Methyl-4-piperidyloxy)-1-ethyl-6-fluoro-1,4-dihydro-4-oxoquinoline-3-carboxylic acid]
1.56 (≈ 4.14 µM)	12.5 (≈ 33.2 µM)	1.56 (≈ 4.14 µM)	–	CC1COc2c(OC3CCN(C)CC3)c(F)cc3c(=O)c(C(=O)O)cn1c23 (centres unmarked) [Compound 12, 10-(1-Methyl-4-piperidyloxy)-9-fluoro-2,3-dihydro-3-methyl-7-oxo-7H-pyrido[1,2,3-de][1,4]-benzoxazine-6-carboxylic acid]
–	–	–	-0.693	Nc1c(F)c(OC2CCNCC2)c(F)c2c1c(=O)c(C(=O)O)cn2C1CC1 [Compound 19]
0.2 (≈ 0.628 µM)	0.78 (≈ 2.45 µM)	0.1 (≈ 0.314 µM)	–	O=C(O)c1cn(C2CC2)c2cc(N3CCOC3)c(F)cc2c1=O [Compound 57, 1-Cyclopropyl-6-fluoro-7-(3-oxazolidinyl)-1,4-dihydro-4-oxoquinoline-3-carboxylic acid]
0.78 (≈ 2.55 µM)	6.25 (≈ 20.4 µM)	0.39 (≈ 1.27 µM)	–	CCn1cc(C(=O)O)c(=O)c2cc(F)c(N3CCOC3)cc21 [Compound 58]
0.2 (≈ 0.602 µM)	0.78 (≈ 2.35 µM)	0.1 (≈ 0.301 µM)	–	CC1CN(c2cc3c(cc2F)c(=O)c(C(=O)O)cn3C2CC2)CO1 (centres unmarked) [Compound 59]
0.2 (≈ 0.533 µM)	1.56 (≈ 4.16 µM)	0.2 (≈ 0.533 µM)	–	CN(C)CC1CN(c2cc3c(cc2F)c(=O)c(C(=O)O)cn3C2CC2)CO1 (centres unmarked) [Compound 60]
–	–	–	-0.316	CCOC(=O)c1cn(C2CC2)c2c(F)c(N3COC(CN(C)C)C3)c(F)cc2c1=O (centres unmarked) [Compound 64]
0.2 (≈ 0.595 µM)	1.56 (≈ 4.64 µM)	0.2 (≈ 0.595 µM)	–	O=C(O)c1cn(C2CC2)c2c(F)c(N3CCOC3)c(F)cc2c1=O [Compound 66, 1-Cyclopropyl-6,8-difluoro-7-(3-oxazolidinyl)-1,4-dihydro-4-oxoquinoline-3-carboxylic acid]
0.2 (≈ 0.571 µM)	0.78 (≈ 2.23 µM)	0.1 (≈ 0.285 µM)	–	CC1CN(c2c(F)cc3c(=O)c(C(=O)O)cn(C4CC4)c3c2F)CO1 (centres unmarked) [Compound 67]
0.78 (≈ 2.23 µM)	3.13 (≈ 8.93 µM)	0.2 (≈ 0.571 µM)	–	CC1COCN1c1c(F)cc2c(=O)c(C(=O)O)cn(C3CC3)c2c1F (centres unmarked) [Compound 68]
0.2 (≈ 0.508 µM)	1.56 (≈ 3.97 µM)	0.2 (≈ 0.508 µM)	–	CN(C)CC1CN(c2c(F)cc3c(=O)c(C(=O)O)cn(C4CC4)c3c2F)CO1 (centres unmarked) [Compound 69]
0.39 (≈ 1.1 µM)	3.13 (≈ 8.83 µM)	0.2 (≈ 0.565 µM)	–	O=C(O)c1cn(C2CC2)c2c(F)c(N3CCOC3)c(F)c(F)c2c1=O [Compound 72, 1-Cyclopropyl-5,6,8-trifluoro-7-(3-oxazolidinyl)-1,4-dihydro-4-oxoquinoline-3-carboxylic acid]
0.1 (≈ 0.273 µM)	0.78 (≈ 2.13 µM)	0.1 (≈ 0.273 µM)	–	O=C(O)c1cn(C2CC2)c2c(F)c(N3COC(CO)C3)c(F)cc2c1=O (centres unmarked) [Compound 74, 1-Cyclopropyl-6,8-difluoro-7-(5-hydroxymethyl-3-oxazolidinyl)-1,4-dihydro-4-oxoquinoline-3-carboxylic acid]
0.39 (≈ 1.11 µM)	3.13 (≈ 8.93 µM)	0.39 (≈ 1.11 µM)	–	O=C(O)c1cn(C2CC2)c2c(F)c(N3CCCOC3)c(F)cc2c1=O [Compound 76, Cyclopropyl-6,8-difluoro-7-(tetrahydro-1,3-oxazin)-3-yl-1,4-dihydro-4-oxoquinoline-3-carboxylic acid]
